molecular target: T1, recombinant human Myt1 (Homo sapiens, UniProt Q99640); experiment: Myt1 enzymatic assay (ADP-Glo kinase assay, IC50 and % max inhibition); assay type: biochemical; conditions: recombinant human Myt1 18 nM, ATP 10 μM
T1 construct: full length PKMYT1 recombinant human protein expressed in insect cells
T1 sequence (Q99640 1-499): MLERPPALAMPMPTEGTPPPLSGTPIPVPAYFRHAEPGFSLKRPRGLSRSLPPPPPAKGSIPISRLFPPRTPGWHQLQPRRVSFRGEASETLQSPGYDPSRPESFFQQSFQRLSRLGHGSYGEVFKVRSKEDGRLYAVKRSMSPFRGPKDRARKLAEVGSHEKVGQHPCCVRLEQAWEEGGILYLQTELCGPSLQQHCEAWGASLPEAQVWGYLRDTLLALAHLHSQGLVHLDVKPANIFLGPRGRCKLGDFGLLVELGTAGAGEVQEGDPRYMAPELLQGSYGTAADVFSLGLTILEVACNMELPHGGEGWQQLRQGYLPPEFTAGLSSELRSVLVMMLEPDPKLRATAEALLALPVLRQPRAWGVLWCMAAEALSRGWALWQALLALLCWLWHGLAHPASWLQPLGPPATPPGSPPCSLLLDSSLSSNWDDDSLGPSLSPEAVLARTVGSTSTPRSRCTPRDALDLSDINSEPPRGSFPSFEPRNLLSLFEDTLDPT
Method: Detection of Myt1 kinase activity utilized a recombinant human Myt1 kinase assay measuring the hydrolysis of ATP using a commercially available ADP-Glo Assay (ADP-Glo™ Kinase Assay from Promega, 10 000 assays, #V9102). […] After this, 5 μL of compounds (diluted in reaction buffer to 0.5% DMSO) was added to the microplate and the plate was spun briefly and incubated at 22° C. for 15 minutes. Ultra-Pure Adenosine Triphosphate (ATP) solution (ADP-Glo kit from Promega) was diluted in reaction buffer and 5 μL was added to the microplate, spun down briefly and incubated for 60 minutes at 30° C. […] After the 60-minute incubation, 15 μL of ADP-Glo reagent was added and the plate was spun briefly and sealed and incubated in the dark for 40 minutes at 22° C. […] Luminescence was read using the Envision (250 ms integration). The IC50 and the % max inhibition were calculated for each inhibitor compound tested.

Row | SMILES | IC50 [nM]
1 | Cc1ccc(O)c(C)c1-n1c(N)c(C(N)=O)c2nc(C#CCc3ccccc3)cnc21 [Compound 1] | 50
2 | Cc1ccc(O)c(C)c1-n1c(N)c(C(N)=O)c2nc(CCC3CCCN3)cnc21 (stereo not drawn) [Compound 2, 6-amino-5-(3-hydroxy-2,6-dimethylphenyl)-2-(2-(pyrrolidin-2-yl)ethyl)-5H-pyrrolo[2,3-b]pyrazine-7-carboxamide] | 231
3 | Cc1ccc(O)c(C)c1-n1c(N)c(C(N)=O)c2nc(C#CC3CCCN3)cnc21 (stereo not drawn) [Compound 3] | 462
4 | Cc1ccc(O)cc1-n1c(N)c(C(N)=O)c2nc(-c3cn[nH]c3)ccc21 [Compound 5] | 277
5 | Cc1ccc(O)cc1-n1c(N)c(C(N)=O)c2nc(C3=CCCC3)ccc21 [Compound 6, 2-amino-5-(cyclopenten-1-yl)-1-(5-hydroxy-2-methyl-phenyl)pyrrolo[3,2-b]pyridine-3-carboxamide] | 1240
6 | Cc1ccc(O)cc1-n1c(N)c(C(N)=O)c2nc(-c3ccc(N4CCOCC4)nc3)ccc21 [Compound 7] | 605
7 | Cc1ccc(O)cc1-n1c(N)c(C(N)=O)c2nc(-c3ccc(N)nc3)ccc21 [Compound 8] | 164
8 | Cc1ccc(O)cc1-n1c(N)c(C(N)=O)c2nc(-c3cccc(C(=O)O)c3)ccc21 [Compound 9] | 363
9 | Cc1ccc(O)cc1-n1c(N)c(C(N)=O)c2nc(-c3ccc(C(=O)O)cc3)ccc21 [Compound 10] | 187
10 | Cc1ccc(O)cc1-n1c(N)c(C(N)=O)c2nc(-c3cc[nH]n3)ccc21 [Compound 11] | 252
11 | Cc1ccc(O)cc1-n1c(N)c(C(N)=O)c2nc(-c3ccn(C)n3)ccc21 [Compound 12] | 988
12 | Cc1ccc(O)cc1-n1c(N)c(C(N)=O)c2nc(-c3ccc(N4CCN(CCO)CC4)cc3)ccc21 [Compound 13] | 190
13 | Cc1ccc(O)cc1-n1c(N)c(C(N)=O)c2nc(-c3cccc(C#N)c3)ccc21 [Compound 14] | 480
14 | Cc1ccc(O)cc1-n1c(N)c(C(N)=O)c2nc(-c3ccc(F)c(Cl)c3)ccc21 [Compound 15] | 1090
15 | Cc1ccc(O)cc1-n1c(N)c(C(N)=O)c2nc(C#CCN3CCOCC3)ccc21 [Compound 16, 2-amino-1-(5-hydroxy-2-methyl-phenyl)-5-(3-morpholinoprop-1-ynyl)pyrrolo[3,2-b]pyridine-3-carboxamide] | 9630
16 | Cc1ccc(O)cc1-n1c(N)c(C(N)=O)c2nc(C#CCC(C)(C)O)ccc21 [Compound 17] | 9060
17 | Cc1ccc(O)cc1-n1c(N)c(C(N)=O)c2nc(CCCN3CCOCC3)ccc21 [Compound 18, 2-amino-1-(5-hydroxy-2-methyl-phenyl)-5-(3-morpholinopropyl)pyrrolo[3,2-b]pyridine-3-carboxamide] | 1940
18 | Cc1ccc(O)cc1-n1c(N)c(C(N)=O)c2nc(CCCC(C)(C)O)ccc21 [Compound 19] | 527
19 | Cc1ccc(O)cc1-n1c(N)c(C(N)=O)c2nc(-c3cccc(CC(=O)O)c3)ccc21 [Compound 20] | 182
20 | Cc1ccc(O)cc1-n1c(N)c(C(N)=O)c2nc(-c3ccc(CC(=O)O)cc3)ccc21 [Compound 21] | 283

Row | SMILES | IC50 [nM]
21 | Cc1ccc(O)cc1-n1c(N)c(C(N)=O)c2nc(-c3ccnc(N)c3)ccc21 [Compound 22] | 79
22 | Cc1ccc(O)cc1-n1c(N)c(C(N)=O)c2nc(-c3nccs3)ccc21 [Compound 24] | 29
23 | Cc1ccc(O)cc1-n1c(N)c(C(N)=O)c2nc(-c3cccc(F)n3)ccc21 [Compound 25] | 399
24 | Cc1ccc(O)c(C)c1-n1c(N)c(C(N)=O)c2nc(-c3nccs3)c(C)nc21 [Compound 31, 6-amino-5-(3-hydroxy-2,6-dimethyl-phenyl)-3-methyl-2-thiazol-2-yl-pyrrolo[2,3-b]pyrazine-7-carboxamide] | < 10
25 | Cc1ccc(O)c(C)c1-n1c(N)c(C(N)=O)c2nc(-c3nc(C)c(C)s3)cnc21 [Compound 32] | < 10
26 | Cc1ccc(O)c(C)c1-n1c(N)c(C(N)=O)c2nc(-c3ccccn3)cnc21 [Compound 34] | < 10
27 | Cc1ccc(O)c(C)c1-n1c(N)c(C(N)=O)c2nc(-c3ccnc(C(F)(F)F)c3)cnc21 [Compound 35, 6-amino-5-(3-hydroxy-2,6-dimethyl-phenyl)-2-[2-(trifluoromethyl)-4-pyridyl]pyrrolo[2,3-b]pyrazine-7-carboxamide] | < 10
28 | Cc1ccc(O)c(C)c1-n1c(N)c(C(N)=O)c2nc(-c3cc(C(F)(F)F)ccn3)cnc21 [Compound 36] | 14
29 | Cc1ccc(O)c(C)c1-n1c(N)c(C(N)=O)c2nc(-c3cncs3)cnc21 [Compound 37] | < 10
30 | Cc1ccc(O)c(C)c1-n1c(N)c(C(N)=O)c2nc(-c3cnccn3)cnc21 [Compound 38] | < 10
31 | Cc1ccc(O)c(C)c1-n1c(N)c(C(N)=O)c2nc(-c3ccns3)cnc21 [Compound 41] | < 10
32 | Cc1c(O)ccc(Cl)c1-n1c(N)c(C(N)=O)c2nc(-c3nccs3)cnc21 [Compound 42] | < 10
33 | CNC(=O)C1CCN(c2cnc3c(n2)c(C(N)=O)c(N)n3-c2c(C)ccc(O)c2C)CC1 [Compound 46, 6-amino-5-(3-hydroxy-2,6-dimethyl-phenyl)-2-[4-(methylcarbamoyl)-1-piperidyl]pyrrolo[2,3-b]pyrazine-7-carboxamide] | < 10
34 | Cc1ccc(O)c(C)c1-n1c(N)c(C(N)=O)c2nc(-c3ccc(Cl)cn3)cnc21 [Compound 49] | < 10
35 | Cc1ccc(O)c(C)c1-n1c(N)c(C(N)=O)c2nc(N3CCC(C)(O)CC3)cnc21 [Compound 52] | 10
36 | Cc1ccc(O)c(C)c1-n1c(N)c(C(N)=O)c2nc(N3CCN(C)CC3)cnc21 [Compound 53] | 16
37 | Cc1ccc(O)c(C)c1-n1c(N)c(C(N)=O)c2nc(-c3ccncn3)cnc21 [Compound 57] | < 10
38 | Cc1ccc(O)c(C)c1-n1c(N)c(C(N)=O)c2nc(C3=CCC(C(=O)N(C)C)CC3)cnc21 (stereo not drawn) [Compound 58] | < 10
39 | Cc1ccc(O)c(C)c1-n1c(N)c(C(N)=O)c2nc(N3CCOC(C)C3)cnc21 (stereo not drawn) [Compound 59] | 12
40 | Cc1ccc(O)c(C)c1-n1c(N)c(C(N)=O)c2nc(-c3ncco3)cnc21 [Compound 60] | 10

Row | SMILES | IC50 [nM]
41 | Cc1ccc(-c2cnc3c(n2)c(C(N)=O)c(N)n3-c2c(C)ccc(O)c2C)nc1 [Compound 61] | < 10
42 | Cc1ccc(O)c(C)c1-n1c(N)c(C(N)=O)c2nc(-c3ccc(F)cn3)cnc21 [Compound 64] | < 10
43 | Cc1ccc(O)c(C)c1-n1c(N)c(C(N)=O)c2nc(-c3c[nH]cn3)cnc21 [Compound 65] | < 10
44 | Cc1ccc(O)c(C)c1-n1c(N)c(C(N)=O)c2nc(N3CCNC(=O)C3)cnc21 [Compound 66] | 10
45 | Cc1ccc(O)c(C)c1-n1c(N)c(C(N)=O)c2nc(N3CCNCC3)cnc21 [Compound 67] | 14
46 | Cc1ccc(O)c(C)c1-n1c(N)c(C(N)=O)c2nc(-c3ccn(C)n3)cnc21 [Compound 72] | 11
47 | Cc1ccc(O)c(C)c1-n1c(N)c(C(N)=O)c2nc(N3CCC(N4CCOCC4)CC3)cnc21 [Compound 74] | 14
48 | Cc1ccc(O)c(C)c1-n1c(N)c(C(N)=O)c2nc(N3CCS(=O)(=O)CC3)cnc21 [Compound 75] | 11
49 | Cc1ccc(O)c(C)c1-n1c(N)c(C(N)=O)c2nc(-c3cn(C)cn3)cnc21 [Compound 76] | < 10
50 | Cc1ccc(O)c(C)c1-n1c(N)c(C(N)=O)c2nc(N3CCC(C(=O)N(C)C)CC3)cnc21 [Compound 80] | < 10
51 | Cc1ccc(O)c(C)c1-n1c(N)c(C(N)=O)c2nc(N3CCCCC3)cnc21 [Compound 81] | < 10
52 | Cc1ccc(O)c(C)c1-n1c(N)c(C(N)=O)c2nc(C3CCCCC3)cnc21 [Compound 83] | < 10
53 | Cc1ccc(O)c(C)c1-n1c(N)c(C(N)=O)c2nc(N3CCCC3)cnc21 [Compound 85] | < 10
54 | Cc1ccc(O)c(C)c1-n1c(N)c(C(N)=O)c2nc(C3=CCCCC3)cnc21 [Compound 86] | < 10
55 | CC(=O)N1CCN(c2cnc3c(n2)c(C(N)=O)c(N)n3-c2c(C)ccc(O)c2C)CC1 [Compound 87] | < 10
56 | CCN(CC)c1cnc2c(n1)c(C(N)=O)c(N)n2-c1c(C)ccc(O)c1C [Compound 88] | < 10
57 | Cc1ccc(O)c(C)c1-n1c(N)c(C(N)=O)c2nc(N3CC4CCC(C3)O4)cnc21 [Compound 92] | < 10
58 | CCCCc1cnc2c(n1)c(C(N)=O)c(N)n2-c1c(C)ccc(O)c1C [Compound 96] | 10
59 | CC(=O)c1c(N)n(-c2c(C)ccc(O)c2C)c2ncc(-c3cnccn3)nc12 [Compound 97, 1-[6-amino-5-(3-hydroxy-2,6-dimethyl-phenyl)-2-pyrazin-2-yl-pyrrolo[2,3-b]pyrazin-7-yl]ethenone] | 12
60 | Cc1ccc(O)c(C)c1-n1c(N)c(C(N)=O)c2nc(C3CC3)c(C)nc21 [Compound 100] | < 10

From US20230151014A1 (Repare Therapeutics Inc., priority 2020, published 2023)
